Measurements: article PMC4434572, “Identification of novel drugs to target dormant micrometastases” (BMC Cancer, 2015)
Where two headings read alike, the source gives them in different places.

Assays:
MDA-MB-435 cells = assay: Proliferation (CFDA-AM esterase assay) of cells grown on SISgel, plastic or Matrigel, 48 h drug exposure; type: cell-based; conditions: for EC50: Homo sapiens; for SI (EC50-P/EC50-S): ratio of EC50 on plastic versus SISgel
Description: The libraries were obtained from the NCI (Diversity Library I) comprised of 2,918 compounds and a 10,000 compound diversity library from ChemBridge, Inc. (DiverSet-EXP). The NCI library is no longer available in the form used here, but how it was constructed is described (http://dtp.nci.nih.gov/branches/dscb/diversity_explanation.html). The ChemBridge library is a subset (Set Code NM1024) of the full 50,000 compound library (http://www.chembridge.com/screening_libraries/diversity_libraries/). Compounds were diluted to 100 μM before use. SISgel was prepared as described previously from powdered porcine small intestine submucosa obtained from Cook Biotech (W. Lafayette, IN). It is a natural product that is used extensively in tissue engineering as a bioscaffold. J82 bladder cancer cells and other cell lines were obtained from the ATCC (Bethesda, MD). The basic principle is that cells grown on any ECM are, in general, expected to show higher resistance to anticancer compounds than when grown on plastic. Therefore, compounds that show a higher activity toward cancer cells on a normal ECM than on a plastic surface would be candidates to target suppressed, micrometastatic cells. Efficacy in vitro was assessed by plating 30,000 cells in 50 μL of high glucose DMEM with penicillin-streptomycin and 10 % fetal calf serum on SISgel in a 96-well plate containing 50 μL of gelled SISgel per well. Cells were allowed to attach and assume the SISgel phenotype for 48 h. A matching plate without SISgel was prepared 24 h later by pipetting 3,000 cells in 100 μL of high glucose DMEM with penicillin-streptomycin and 10 % fetal calf serum into each well of 96 well plate. The cells were allowed to attach and grow for 24 h. These numbers of cells gave approximately equal replication rates at the time drug was added for cells grown on the plastic surface or SISgel as determined by the fraction of S-phase cells identified by flow cytometry. The cells were exposed to drug in fresh medium for 48 h, at which time the cell number was determined using the CFDA-AM cellular esterase proliferation assay (cat. #C1354, Life Technologies). For screening the results are reported as the ratio of cell count of cells on the plastic surface to the cell count on SISgel. An initial difference of 1.5 fold identified potential hits. All potential hits were confirmed in triplicate. Those compounds that replicated were confirmed by a full dose–response study yielding an EC50 using five wells per drug concentration. Data were analyzed using nonlinear regression to a sigmoid curve with Prism 4 (GraphPad Software, Inc., LaJolla, CA). Potential hits that were confirmed by dose–response using J82 were also tested with MDA-MB-435 breast cancer, PC-3 metastatic prostate cancer, Capan1 pancreatic cancer and the J82 bladder cancer cell lines.

in vivo = conditions: mouse
mice = assay: Toxicity / maximum tolerated dose in mice; conditions: mice
[1] = test system: 4T1 stem cells (CD44v3highALDH1high 4T1 cells); assay: Tumor cell growth inhibition of sphere-derived cancer stem cells (CellTiter-Glo); type: cell-based, mouse; conditions: suspension culture, 5 days; read-out: EC50 4T1 stem cells in suspension culture
Description: Sphere formation to further increase the fraction of cancer stem cells was induced by suspending CD44v3highALDH1high 4T1 cells in 1:1 Matrigel/basal medium in a total of volume of 100 μl. Samples (5 × 10^4 cells) were then plated around the rims of wells in a 12-well plate and allowed to solidify at 37 °C for 10 min before 1 ml basal medium (with B27 plus 20 ng/mL EGF, 10 ng/mL FGF and 4 μg/mL insulin) was added. Medium was replenished every 3-days. Ten days after plating, spheres (tight, spherical, nonadherent masses >40 μm in diameter) per well were counted, and at least 100 spheres per group were measured. The number of spheres containing CD44v3highALDH1high 4T1 cells in each well and expressed as sphere forming units (SFU) as described previously. The number of SFUs per well was counted in triplicate wells for each condition.
To recover CD44v3highALDH1high 4T1 cells from the spheres, Matrigel–containing wells were treated with 1 mg/ml Dispase solution (Gibco). Spheres were then digested with trypsin and 0.05 % EDTA. CD44v3highALDH1high cells dissociated from spheres were counted by hemacytometer and replated to generate spheres of next generation. Serial passage of individual spheres was regularly performed in order to verify self-renewal capability of cells associated the spheres. Measurement of growth for CD44v3highALDH1high cells (dissociated from spheres) was also performed by incubating these cells in serum-free RPMI-1640 medium for 3-weeks using MTT-based growth assay as described previously.
To analyze tumor cell growth properties, sphere-derived CD44v3highALDH1high 4T1 cells were incubated in basal medium (with B27 plus 20 ng/mL EGF, 10 ng/mL FGF and 4 μg/mL insulin). Medium was replenished every 3-days. Twenty-one days after plating, the number of cell growth was then counted under a microscope at low magnification. In some cases, these sphere-derived CD44v3highALDH1high 4T1 cells were also treated with DT compounds for 5 days or doxorubicin (range 1 μM to 1 mM) for 5 days at 37 °C. The CellTiter-Glo® Luminescent Cell Viability Assay (Promega, Madison, WI) was utilized to determine the number of metabolically active cells based on the quantification of adenosine triphosphate (ATP). The percentage of […] relative to untreated controls was plotted as a linear function of drug concentration. The 50 % inhibitory concentration (IC50) was identified as the concentration of drug required to achieve a 50 % growth inhibition relative to untreated controls.
A stem cell–enriched cell population was prepared as described previously by sorting for ALDH1 and CD44v3. The identification of aldehyde dehydrogenase1 (ALDH1) activity from tumor–derived 4T1 Luc2-GFP cells (PerkinElmer, Waltham, MA) was conducted using the ALDEFLUOR kit (StemCell Technologies, Durham, NC). Specifically, tumor cells were suspended in ALDEFLUOR assay buffer containing ALDH1 substrate (BAAA, […] per 1 × 10^6 cells) and incubated for 30 min at 37 °C. As a negative control, 4T1 cells were treated with a specific ALDH1 inhibitor, […] diethylaminobenzaldehyde (DEAB). Next, for labeling cell surface marker, tumor–derived 4T1 cells were suspended in 100 μl ALDEFLUOR buffer followed by incubating with 20 μl allophycocyanin (APC)-labeled anti-CD44v3 antibody (recognizing the v3-specific domain of CD44) or APC-labeled normal mouse IgG (as a control) (BD Bioscience, San Jose, CA) for 15 min at 4 °C. For FACS sorting, tumor cells were incubated in PBS buffer followed by FACS (BD FACS Aria llu, BD Bioscience, San Jose, CA) sorting using dual-wavelength analysis as described previously. The parental cell line contained 2 % CD44v3highALDH1high cells but the final sorted cells contained 18 % CD44v3highALDH1high cells, a 9-fold enrichment.

[2] = test system: cancer cells on SISgel or plastic; assay: Activity of leads and analogs on cancer cells grown on plastic vs SISgel (cell line not stated); type: cell-based; conditions: for SR: ratio IC50-p/IC50-S; for Hit: YES/NO
Description: The NCI library is no longer available in the form used here, but how it was constructed is described (http://dtp.nci.nih.gov/branches/dscb/diversity_explanation.html). The ChemBridge library is a subset (Set Code NM1024) of the full 50,000 compound library (http://www.chembridge.com/screening_libraries/diversity_libraries/). Compounds were diluted to 100 μM before use. SISgel was prepared as described previously from powdered porcine small intestine submucosa obtained from Cook Biotech (W. Lafayette, IN). It is a natural product that is used extensively in tissue engineering as a bioscaffold. J82 bladder cancer cells and other cell lines were obtained from the ATCC (Bethesda, MD). […] Efficacy in vitro was assessed by plating 30,000 cells in 50 μL of high glucose DMEM with penicillin-streptomycin and 10 % fetal calf serum on SISgel in a 96-well plate containing 50 μL of gelled SISgel per well. Cells were allowed to attach and assume the SISgel phenotype for 48 h. A matching plate without SISgel was prepared 24 h later by pipetting 3,000 cells in 100 μL of high glucose DMEM with penicillin-streptomycin and 10 % fetal calf serum into each well of 96 well plate. The cells were allowed to attach and grow for 24 h. […] The cells were exposed to drug in fresh medium for 48 h, at which time the cell number was determined using the CFDA-AM cellular esterase proliferation assay (cat. #C1354, Life Technologies). For screening the results are reported as the ratio of cell count of cells on the plastic surface to the cell count on SISgel. An initial difference of 1.5 fold identified potential hits. All potential hits were confirmed in triplicate. […] Data were analyzed using nonlinear regression to a sigmoid curve with Prism 4 (GraphPad Software, Inc., LaJolla, CA). […]

[3] = MDA-MB-435 cells on SISgel, read-out: EC50-S
[4] = MDA-MB-435 cells on plastic, read-out: EC50-P
[5] = cells on SISgel, read-out: IC50-S
[6] = cells on plastic, read-out: IC50-p

Row | EC50 [1] | IC50 [2, 5] | IC50 [2, 6] | SMILES | EC50 (MDA-MB-435 cells; [3]) | EC50 (MDA-MB-435 cells; [4]) | SI (EC50-P/EC50-S) (MDA-MB-435 cells) | MTD (in vivo) | doses at which highly toxic to mice (mice) | toxicity in mice (mice) | SR [2] | Hit [2]
1 | – | – | – | COc1ccc(CC(=O)Oc2ccc3c(c2)C(C)=CC(C)(C)N3)cc1 [DT350, 2,2,4-trimethyl-1,2-dihydro-6-quinolinyl (4-methoxyphenyl)-acetate] | 270 µM | 1830 µM | 6.8 | < 10 mg/kg | less than 10 mg/kg | dose-limiting toxicity | – | –
2 | 398 µM | 1200 µM | 657 µM | O=S(=O)([O-])c1ccc(N=Nc2ccc(O)c3ccccc23)cc1.[Na+] [Orange 1] | – | – | – | – | – | – | 0.55 | –
3 | – | 23 µM | 46 µM | O=S(=O)(O)c1cc(Cl)cc(N=Nc2c(S(=O)(=O)O)cc3cc(S(=O)(=O)O)c(N=Nc4cc(Cl)cc(S(=O)(=O)O)c4O)c(O)c3c2O)c1O [Sulfochlorophenol S] | – | – | – | – | – | – | 2.0 | YES
4 | – | 72 µM | 146 µM | O=S(=O)([O-])c1cc2cc(S(=O)(=O)O)ccc2c(N=Nc2c(O)cc(S(=O)(=O)[O-])c3ccccc23)c1O.[Na+].[Na+] [Hydroxy Naphthol Blue] | – | – | – | – | – | – | 2.0 | YES
5 | – | 400 µM | 114 µM | O=S(=O)([O-])c1ccc(N=Nc2c(O)ccc3ccccc23)cc1.[Na+] [Acid Orange 7] | – | – | – | – | – | – | 0.29 | –
6 | – | 50 µM | 90 µM | O=S(=O)(O)c1ccc(N=Nc2ccc3c(S(=O)(=O)O)cccc3c2O)c2ccccc12.[Na+] [Chromotrope F4B] | – | – | – | – | – | – | 1.8 | YES
7 | – | 31 µM | 67 µM | O=S(=O)([O-])c1ccc(N=Nc2c(O)ccc3cc(S(=O)(=O)[O-])ccc23)cc1.[Na+].[Na+] [Sunset Yellow FCF] | – | – | – | – | – | – | 2.2 | YES
8 | – | 51 µM | 85 µM | CC(=O)Nc1ccc(N=Nc2c(N)ccc3cc(S(=O)(=O)O)cc(O)c23)c(S(=O)(=O)O)c1.N.N [Acid Red 37] | – | – | – | – | – | – | 1.7 | YES
9 | – | 57 µM | 77 µM | O=S(=O)([O-])c1cc(Nc2nc(Cl)nc(Cl)n2)c2c(O)c(N=Nc3ccccc3)c(S(=O)(=O)[O-])cc2c1.[Na+].[Na+] [Procion Red Mx - 5B] | – | – | – | – | – | – | 1.4 | –
10 | – | 33 µM | 94 µM | O=S(=O)([O-])c1cc(O)c2c(N=Nc3c(S(=O)(=O)[O-])cc4cc(S(=O)(=O)[O-])cc(O)c4c3O)cc(S(=O)(=O)[O-])cc2c1.[Na+].[Na+].[Na+].[Na+] [Beryllon II] | – | – | – | – | – | – | 3 | YES
11 | – | – | – | COc1ccc(C2C3=C(CCCC3=O)NC3=C2C(=O)c2ccccc23)c(OC)c1OC (stereo not drawn) [DT340, 10-(2,3,4-trimethoxyphenyl)-6,7,8,10-tetrahydro-5H-indeno[1,2-b]quinoline-9,11-dione] | 117 µM | 219 µM | 1.9 | < 10 mg/kg | less than 10 mg/kg | dose-limiting toxicity | – | –
12 | – | 34 µM | 71 µM | CC(=O)Nc1ccc(N=Nc2c(S(=O)(=O)[O-])cc3cc(S(=O)(=O)[O-])cc(O)c3c2O)cc1.[Na+].[Na+] [Chromotrope 6B] | – | – | – | – | – | – | 2.1 | YES
13 | – | 26 µM | 33 µM | O=S(=O)([O-])c1ccc2c(N=Nc3ccc(S(=O)(=O)[O-])c4ccccc34)c(O)c(S(=O)(=O)[O-])cc2c1.[Na+].[Na+].[Na+] [Amaranthe] | – | – | – | – | – | – | 1.3 | –
14 | – | 86 µM | 64 µM | CCN(Cc1cccc(S(=O)(=O)[O-])c1)c1ccc(C(=C2C=CC(=[N+](C)C)C=C2)c2ccc(N(CC)Cc3cccc(S(=O)(=O)O)c3)cc2)cc1.[Na] [Acid Violet 49] | – | – | – | – | – | – | 0.75 | –
15 | – | 111 µM | 146 µM | Cc1cc(C)c(N=Nc2c(O)c(S(=O)(=O)[O-])cc3cc(S(=O)(=O)[O-])ccc23)cc1C.[Na+].[Na+] [Ponceau 3R] | – | – | – | – | – | – | 1.3 | –
16 | – | 47 µM | 82 µM | O=S(=O)([O-])c1cc(S(=O)(=O)[O-])c2c(N=Nc3ccc(N=Nc4ccccc4)cc3)c(O)ccc2c1.[Na+].[Na+] [Brilliant Crocein Moo] | – | – | – | – | – | – | 1.8 | YES
